According to patent US10555535B2, “Pest control composition and pest control method” (SUMITOMO CHEMICAL COMPANY, LIMITED, priority 2015, dated 2020):

Tests used:
[1] = system: Diabrotica virgifera virgifera; test: Test Example 13: treated corn seeds, controlling effect on Diabrotica virgifera virgifera larvae; format: in vivo
Experimental: (§1) If the effect by the combination of two active ingredients is greater than that of the estimated value E, which is calculated by the Colby's equation as follows, the effect is regarded as synergistic. E=X+Y−X·Y/100 wherein, • E=Controlling effect when using the mixture of the active ingredients A and B at the concentrations m and n (amount of the active ingredient), respectively. • X=Controlling effect when using the active ingredient A at the concentration m (amount of the active ingredient). • Y=Controlling effect when using the active ingredient B at the concentration n (amount of the active ingredient).
In a rotary seed treatment machine (trade name: HEGE11, manufactured by WINTERSTEIGER), corn seeds (variety: yellow dent corn) were treated by smearing treatment using the wettable powder of the present bacterial strain obtained in Formulation Example 13 or clothianidin flowable formulation (47.8% flowable formulation, trade name: NipsIt Inside Insecticide, Valent U.S.A. Corporation), or imidacloprid flowable formulation (48.7% flowable formulation, trade name: Gaucho 600, Bayer CropScience), so that the corn seeds thus treated retain the present bacterial strain, clothianidin or imidacloprid in the amount shown in Table 6.
In a rotary seed treatment machine (trade name: HEGE11, manufactured by WINTERSTEIGER), the corn seeds thus treated with clothianidin or imidacloprid were treated by wet powder coating with a wettable powder of the present bacterial strain as obtained in Formulation Example 13, so that the […] thus treated retain the present bacterial strain and clothianidin or the present bacterial strain and imidacloprid in the amount shown in Table 6.
Newly hatched larvae of Diabrotica virgifera virgifera are released (10 for each stalk of corn) on the 7th day after the seeding, and the number of living Diabrotica virgifera virgifera was counted on the 10th day after the release. Similar procedures were conducted using untreated corn seeds, instead of the treated corn seeds, as described above for the treated compartment (“untreated compartment”).
(§2) Based on the numbers of survivors in the treated compartment and the untreated compartment, the effect in the treated compartment was calculated by the following equation. Controlling effect=100×[(number of survivors in untreated compartment number of survivors in treated compartment)/number of survivors in untreated compartment]

Aphis gossypii = test: Test Example 12: treated soybean seeds, controlling effect on Aphis gossypii; format: in vivo
Experimental: In a rotary seed treatment machine (trade name: HEGE11, manufactured by WINTERSTEIGER), soybean seeds (variety:“Hatayutaka”) were treated by smearing treatment using flowable formulation of the present bacterial strain obtained in Formulation Example 14, flupyradifurone liquid formulation (20.0% liquid formulation, trade name: SIVANTO200, Bayer CropScience), thiacloprid flowable formulation (40.0% flowable formulation, trade name: Sonido, Bayer CropScience), thiamethoxam flowable formulation (47.6% flowable formulation, trade name: Cruiser 5FS, Syngenta Crop Protection LCC), so that the soybean seeds retain the present bacterial strain and the compound in the amount shown in Table 5.
Twenty Aphis gossypii were released on the 14th day after the seeding, and the number of living Aphis gossypii was counted on the 5th day after the release. Similar procedures were conducted using untreated soybean seeds, instead of the treated soybean seeds, as described above for the treated compartment (“untreated compartment”).
as §2, with “compartment−number” for “compartment number”
as §1

## CN/C(=N\[N+](=O)[O-])NCc1cnc(Cl)s1 [Clothianidin, clothianidin]
[1]; corn seeds retaining 0.6 g /Kg seeds
  Controlling Effect: 41.4
[1]; corn seeds retaining 1.2 g /Kg seeds
  Controlling Effect: 64.3

## O=C1C=C(N(Cc2ccc(Cl)nc2)CC(F)F)CO1 [Flupyradifurone, flupyradifurone]
Aphis gossypii; soybean seeds retaining 0.2 g /Kg seeds
  Controlling Effect: 65.9
Aphis gossypii; soybean seeds retaining 0.4 g /Kg seeds
  Controlling Effect: 77.6

## O=[N+]([O-])NC1=NCCN1Cc1ccc(Cl)nc1 [Imidacloprid, imidacloprid]
[1]; corn seeds retaining 2.0 g /Kg seeds
  Controlling Effect: 51.4
[1]; corn seeds retaining 2.5 g /Kg seeds
  Controlling Effect: 62.8

## N#C/N=C1\SCCN1Cc1ccc(Cl)nc1 [Thiacloprid, thiacloprid]
Aphis gossypii; soybean seeds retaining 0.3 g /Kg seeds
  Controlling Effect: 56.9
Aphis gossypii; soybean seeds retaining 0.45 g /Kg seeds
  Controlling Effect: 69.0

## CN1COCN(Cc2cnc(Cl)s2)/C1=N\[N+](=O)[O-] [Thiamethoxam, thiamethoxam]
Aphis gossypii; soybean seeds retaining 0.15 g /Kg seeds
  Controlling Effect: 70.6
Aphis gossypii; soybean seeds retaining 0.25 g /Kg seeds
  Controlling Effect: 78.4
